According to patent US20260183274A1, “PDK1 REGULATORY COMPOUND AND COMPOSITION CONTAINING THE SAME” (PROVIBIO CO., LTD., priority 2024, published 2026):

Columns and labels:
Assay type in all cases: cell-based
[1] = test system: T cells isolated from mouse spleens; experiment: T cell proliferation inhibition (CFSE flow cytometry, anti-CD3/anti-CD28 stimulation); details: mouse spleen T cells, 3 days; for inhibition at 0.01 µM / inhibition at 0.1 µM / inhibition at 1 µM / inhibition at 10 µM / inhibition at 30 µM / inhibition at 50 µM: Mus musculus, T-cell, 72 h, read-out: Proliferation inhibition rate (%)
In short: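 Splenic T cells from 7-week-old C57BL/6 mice were MACS-isolated, CFSE-labelled, seeded at 2×10^5 cells/well and activated with anti-CD3/anti-CD28 (0.5 μg/mL each). Compound at 10 nM–50 μM (six levels, triplicate) was present for 3 days at 37 °C before flow cytometric readout of proliferation inhibition rate.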

[2] = test system: Human B Lymphocyte cell line, SU-DHL-8; experiment: Relative cell viability CCK-8, SU-DHL-8; details: 48 hours, untreated (DMSO) = 100%; for viability at 1 µM / viability at 10 µM / viability at 30 µM / viability at 50 µM: Homo sapiens, SU-DHL-8, 48 h; for viability at 1 µM: read-out: Relative cell viability (%), SU-DHL-8, 1 μM; for viability at 10 µM: read-out: Relative cell viability (%), SU-DHL-8, 10 μM; for viability at 30 µM: read-out: Relative cell viability (%), SU-DHL-8, 30 μM; for viability at 50 µM: read-out: Relative cell viability (%), SU-DHL-8, 50 μM
In short: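 Cells grown in RPMI-1640 with 10% FBS, treated with compound at several concentrations, then given CCK-8 for 4 h at 37° C. Viability expressed as percent of DMSO-treated cells.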

[3] = test system: Human Head and Neck cancer, Fadu; experiment: Relative cell viability CCK-8, Fadu; details: Fadu cells, relative to untreated cells
Method: Human-derived head and neck cancer cell line Fadu and osteosarcoma cell line Saos-2 were cultured in MEM medium containing 10% FBS, 100 U/mL penicillin, and 100 μg/mL streptomycin.
Following stabilization, the cells were harvested using Trypsin-EDTA treatment, centrifuged at 1,200 rpm for 3 minutes, the supernatant was removed, and the cells were resuspended in the same medium. They were then seeded into a 96-well plate (Costar 96-well cell culture plate, Corning) at 100 μL per well, and the conditions were adjusted as indicated in Table 5.
The cells were cultured in a 5% CO2 incubator at 37° C. for 24 hours, and after stabilization of the cells, each plate was washed with 200 μL of PBS per well and treated with 50 μL of culture medium per well.
After that, 10 μL of CCK-8 was added to each well, and the plate was incubated again at 37° C. in a 5% CO2 incubator for 2 hours.
In other words, when the survival rate of untreated cells (DMSO) is set at 100%, the relative cell survival rate in each group treated with the drug at different concentrations is indicated.

Compound | inhibition at 0.01 µM ([1]; compound 10 nM) | inhibition at 0.1 µM ([1]; compound 100 nM) | inhibition at 1 µM ([1]; compound 1 μM) | inhibition at 10 µM ([1]; compound 10 μM) | inhibition at 30 µM ([1]; compound 30 μM) | inhibition at 50 µM ([1]; compound 50 μM) | viability at 1 µM [2] | viability at 10 µM [2] | viability at 30 µM [2] | viability at 50 µM [2] | Proliferation inhibition rate (%) ([1]; compound 10 nM) | Proliferation inhibition rate (%) ([1]; compound 100 nM) | Proliferation inhibition rate (%) ([1]; compound 1 μM) | Proliferation inhibition rate (%) ([1]; compound 10 μM) | Proliferation inhibition rate (%) ([1]; compound 30 μM) | Proliferation inhibition rate (%) ([1]; compound 50 μM) | Relative cell viability (%), SU-DHL-8 ([2]; 1 μM) | Relative cell viability (%), SU-DHL-8 ([2]; 10 μM) | Relative cell viability (%), SU-DHL-8 ([2]; 30 μM) | Relative cell viability (%), SU-DHL-8 ([2]; 50 μM) | also measured
Nc1ncccc1C(=O)NCCCCCCCCCCCCN1CCC(c2ccc([N+](=O)[O-])cc2)CC1 [Compound 44, 2-Amino-N-(12-(4-(4-nitrophenyl)piperidin-1-yl)dodecyl)nicotinamide] | -6.21% | 100% | 100% | 100% | 100% | 100% | 6.14% | 4.91% | 2.54% | 1.41% |  |  |  |  |  |  |  |  |  |  | viability at 1 µM ([3]; Homo sapiens, FaDu, 1 μM): 1.22%; viability at 10 µM ([3]; Homo sapiens, FaDu, 10 μM): 5.89%; viability at 30 µM ([3]; Homo sapiens, FaDu, 30 μM): 2.94%
Cc1ccc(OC2CCN(CCCCCCCCCCCCNC(=O)c3cccnc3N)CC2)cc1 [Compound 51, 2-Amino-N-(12-(4-(p-tolyloxy)piperidin-1-yl)dodecyl) nicotinamide] |  |  |  |  |  |  |  |  |  |  | 0.77% | 16.10% | 100.00% | 100.00% | 100.00% | 100.00% |  |  |  |  | Relative cell viability (%) ([3]; 1 μM): 24.93%; Relative cell viability (%) ([3]; 10 μM): 17.30%; Relative cell viability (%) ([3]; 50 μM): 7.69%
Cl.O=C(NCCCCCCCCCCCCN1CCNCC1)c1ccc(-c2ccccc2)o1 [Compound 90, 5-Phenyl-N-(12-(piperazin-1-yl)dodecyl) furan-2-carboxamide hydrochloride] |  |  |  |  |  |  |  |  |  |  | −8.27% | −2.03% | 66.18% | 100.00% | 100.00% | 100.00% | 7.19% | 5.94% | 2.48% | 1.94% | 
CN1CCN(CCCCCCCCCCCCNC(=O)c2ccc3[nH]cnc3c2)CC1 [Compound 91, N-(12-(4-methylpiperazin-1-yl)dodecyl)-1H-benzo[d]imidazole-5-carboxamide] | -14.6% | 100% | 100% | 100% | 100% | 100% | 3.93% | 3.12% | 1.84% | 1.59% |  |  |  |  |  |  |  |  |  |  | 
CN1CCN(CCCCCCCCCCCCNC(=O)c2cccnc2F)CC1 [Compound 121, 2-fluoro-N-(12-(4-methylpiperazin-1-yl)dodecyl) nicotinamide] |  |  |  |  |  |  |  |  |  |  | 0.00% | 0.00% | 0.00% | 30.00% | 100.00% | 100.00% | 34.89% | 28.99% | 29.04% | 31.11% | 
Nc1ncccc1C(=O)NCCCCCCCCCCCCN1CC(F)(F)C1 [Compound 122, 2-Amino-N-(12-(3,3-difluoroazetidin-1-yl)dodecyl) nicotinamide] |  |  |  |  |  |  |  |  |  |  | 0.00% | 0.00% | 80.00% | 100.00% | 100.00% | 100.00% | 31.84% | 31.91% | 32.93% | 35.70% | 
Nc1ncccc1C(=O)NCCCCCCCCCCCCn1ncc2ccc(Cl)nc21 [Compound 123, 2-Amino-N-(12-(6-chloro-1H-pyrazolo[3,4-b]pyridin-1-yl)dodecyl)nicotinamide] | -2.54% | 4.78% | 48.4% | 100% | 100% | 100% | 42.2% | 42.2% | 44.6% | 48.8% |  |  |  |  |  |  |  |  |  |  | 
CN1CCN(C2CCN(CCCCCCCCCCCCNC(=O)c3cccnc3N)CC2)CC1 [Compound 124, 2-Amino-N-(12-(4-(4-methylpiperazin-1-yl)piperidin-1-yl)dodecyl)nicotinamide] | 0% | 20% | 30% | 100% | 100% | 100% | 30.4% | 30.7% | 32.1% | 31.7% |  |  |  |  |  |  |  |  |  |  | 
COc1cc2c(cc1OC)CN(CCCCCCCCCCCCNC(=O)c1cccnc1N)CC2 [Compound 125, 2-Amino-N-(12-(6,7-dimethoxy-3,4-dihydroisoquinolin-2 (1H)-yl)dodecyl)nicotinamide] | -4.48% | 100% | 100% | 100% | 100% | 100% | 42% | 42.6% | 42% | 42.7% |  |  |  |  |  |  |  |  |  |  | 
COC1CCN(CCCCCCCCCCCCNC(=O)c2cccnc2N)C1 (centres unmarked) [Compound 126, 2-amino-N-(12-(3-methoxypyrrolidin-1-yl)dodecyl) nicotinamide] |  |  |  |  |  |  |  |  |  |  |  | 100.00% | 100.00% | 100.00% | 100.00% | 100.00% |  |  |  |  | Proliferation inhibition rate (%) ([1]; compound 10 nM, listed as K-PB-48, 0.01 µM): 0.00%; Relative cell viability (%), SU-DHL-8 ([2]; 1 μM, listed as K-PB-48, 1 µM): 33.03%; Relative cell viability (%), SU-DHL-8 ([2]; 10 μM, listed as K-PB-48, 10 µM): 31.98%; Relative cell viability (%), SU-DHL-8 ([2]; 30 μM, listed as K-PB-48, 30 µM): 32.32%; Relative cell viability (%), SU-DHL-8 ([2]; 50 μM, listed as K-PB-48, 50 µM): 30.44%
Nc1ncccc1C(=O)NCCCCCCCCCCCCN1CC=CC1 [Compound 129, 2-amino-N-(12-(2,5-dihydro-1H-pyrrol-1-yl)dodecyl) nicotinamide] |  |  |  |  |  |  |  |  |  |  | 0.00% | 90.00% | 100.00% | 100.00% | 100.00% | 100.00% | 34.26% | 33.99% | 35.05% | 34.27% | 
Nc1ncccc1C(=O)CCCCCCCCCCCCCN1CC2CCC(C1)O2 [Compound 131, 1-(2-aminopyridin-3-yl)-14-(8-oxa-3-azabicyclo[3.2.1]octan-3-yl)tetradecan-1-one] | -6.12% | 100% | 100% | 100% | 100% | 100% | 44.8% | 42.1% | 42.7% | 42.5% |  |  |  |  |  |  |  |  |  |  | 
